Experimental data as given in patent publication US12295936B2, “Immunomodulating urea azalides” (Zoetis Services LLC, priority 2020, dated 2025).

What was measured:
Experiment in all cases: LPS-stimulated whole bovine blood assay, MSD cytokine detection
Assay type in all cases: cell-based
TNF-α = settings: Bos taurus, LPS-stimulated bovine whole blood; read-out: TNF-α (IC50 μM)
IL-1β = settings: overstimulation of IL-1β, LPS-stimulated bovine whole blood
IL-6 = settings: Bos taurus, LPS-stimulated bovine whole blood; read-out: IL-6 (IC50 μM)
Source text: In order to correlate RNA sequencing data to cytokine changes the whole blood assay was utilized. […] The enhancement result represents an overall stimulation of cytokine levels due to cellular stress or potential toxicity with increasing concentrations of the compound, representing a typical bell shape response curve for immunomodulatory activity.

IC50 (TNF-α)	IC50 (IL-6)	Compound	IL-1β OS of LPS (IL-1β)
250 µM	> 250 µM	CC[C@H]1OC(=O)[C@H](C)[C@@H](O[C@H]2C[C@@](C)(OC)[C@](O)(CNCC3CCN(C)CC3)[C@H](C)O2)[C@H](C)[C@@H](O[C@@H]2O[C@H](C)C[C@H](N(C)C(=O)N(C)c3ccccc3)[C@H]2O)[C@](C)(O)C[C@@H](C)CN[C@H](C)[C@@H](O)[C@]1(C)O [Example H-30, 1-((2S,3R,4S,6R)-2-(((2R,3S,4R,5R,8R,10R,11R,12S,13S,14R)-2-ethyl-3,4,10-trihydroxy-13-(((2R,4R,5S,6S)-5-hydroxy-4-methoxy-4,6-dimethyl-5-((((1-methylpiperidin-4-yl)methyl)amino)methyl)tetrahydro-2H-pyran-2-yl)oxy)-3,5,8,10,12,14-hexamethyl-15-oxo-1-oxa-6-azacyclopentadecan-11-yl)oxy)-3-hydroxy-6-methyltetrahydro-2H-pyran-4-yl)-1,3-dimethyl-3-phenylurea]	250 µM
49 µM	36 µM	CC[C@H]1OC(=O)[C@H](C)[C@@H](O[C@H]2C[C@@](C)(OC)[C@](O)(CNCCCN3CCCCC3)[C@H](C)O2)[C@H](C)[C@@H](O[C@@H]2O[C@H](C)C[C@H](N(C)C(=O)N(C)c3ccccc3)[C@H]2O)[C@](C)(O)C[C@@H](C)CN[C@H](C)[C@@H](O)[C@]1(C)O [Example H-38, 1-((2S,3R,4S,6R)-2-(((2R,3S,4R,5R,8R,10R,11R,12S,13S,14R)-2-ethyl-3,4,10-trihydroxy-13-(((2R,4R,5S,6S)-5-hydroxy-4-methoxy-4,6-dimethyl-5-(((3-(piperidin-1-yl)propyl)amino)methyl)tetrahydro-2H-pyran-2-yl)oxy)-3,5,8,10,12,14-hexamethyl-15-oxo-1-oxa-6-azacyclopentadecan-11-yl)oxy)-3-hydroxy-6-methyltetrahydro-2H-pyran-4-yl)-1,3-dimethyl-3-phenylurea]	>250 µM
109 µM	130 µM	CCCNC[C@]1(O)[C@H](C)O[C@@H](O[C@H]2[C@H](C)[C@@H](O[C@@H]3O[C@H](C)C[C@H](N(C)C(=O)N(C)c4ccccn4)[C@H]3O)[C@](C)(O)C[C@@H](C)CN[C@H](C)[C@@H](O)[C@](C)(O)[C@@H](CC)OC(=O)[C@@H]2C)C[C@@]1(C)OC [Example H-45, 1-((2S,3R,4S,6R)-2-(((2R,3S,4R,5R,8R,10R,11R,12S,13S,14R)-2-ethyl-3,4,10-trihydroxy-13-(((2R,4R,5S,6S)-5-hydroxy-4-methoxy-4,6-dimethyl-5-((propylamino)methyl)tetrahydro-2H-pyran-2-yl)oxy)-3,5,8,10,12,14-hexamethyl-15-oxo-1-oxa-6-azacyclopentadecan-11-yl)oxy)-3-hydroxy-6-methyltetrahydro-2H-pyran-4-yl)-1,3-dimethyl-3-(pyridin-2-yl)urea]	250 µM
> 250 µM	> 250 µM	CCCNC[C@]1(O)[C@H](C)O[C@@H](O[C@H]2[C@H](C)[C@@H](O[C@@H]3O[C@H](C)C[C@H](N(C)C(=O)N(C)c4cncnc4)[C@H]3O)[C@](C)(O)C[C@@H](C)CN[C@H](C)[C@@H](O)[C@](C)(O)[C@@H](CC)OC(=O)[C@@H]2C)C[C@@]1(C)OC [Example H-50, 1-((2S,3R,4S,6R)-2-(((2R,3S,4R,5R,8R,10R,11R,12S,13S,14R)-2-ethyl-3,4,10-trihydroxy-13-(((2R,4R,5S,6S)-5-hydroxy-4-methoxy-4,6-dimethyl-5-((propylamino)methyl)tetrahydro-2H-pyran-2-yl)oxy)-3,5,8,10,12,14-hexamethyl-15-oxo-1-oxa-6-azacyclopentadecan-11-yl)oxy)-3-hydroxy-6-methyltetrahydro-2H-pyran-4-yl)-1,3-dimethyl-3-(pyrimidin-5-yl)urea]	>250 µM
